Laboratory results: ChEMBL document CHEMBL1137842, “Fluorinated dihydroquinolines as potent n-NOS inhibitors” (Bioorg Med Chem Lett, 2004)

How the values were obtained:
Nitric oxide synthase 3 = target: T1, Nitric oxide synthase 3 (Homo sapiens, UniProt P29474); test: Inhibition of human endothelial nitric oxide synthase
T1 sequence (P29474 whole entry): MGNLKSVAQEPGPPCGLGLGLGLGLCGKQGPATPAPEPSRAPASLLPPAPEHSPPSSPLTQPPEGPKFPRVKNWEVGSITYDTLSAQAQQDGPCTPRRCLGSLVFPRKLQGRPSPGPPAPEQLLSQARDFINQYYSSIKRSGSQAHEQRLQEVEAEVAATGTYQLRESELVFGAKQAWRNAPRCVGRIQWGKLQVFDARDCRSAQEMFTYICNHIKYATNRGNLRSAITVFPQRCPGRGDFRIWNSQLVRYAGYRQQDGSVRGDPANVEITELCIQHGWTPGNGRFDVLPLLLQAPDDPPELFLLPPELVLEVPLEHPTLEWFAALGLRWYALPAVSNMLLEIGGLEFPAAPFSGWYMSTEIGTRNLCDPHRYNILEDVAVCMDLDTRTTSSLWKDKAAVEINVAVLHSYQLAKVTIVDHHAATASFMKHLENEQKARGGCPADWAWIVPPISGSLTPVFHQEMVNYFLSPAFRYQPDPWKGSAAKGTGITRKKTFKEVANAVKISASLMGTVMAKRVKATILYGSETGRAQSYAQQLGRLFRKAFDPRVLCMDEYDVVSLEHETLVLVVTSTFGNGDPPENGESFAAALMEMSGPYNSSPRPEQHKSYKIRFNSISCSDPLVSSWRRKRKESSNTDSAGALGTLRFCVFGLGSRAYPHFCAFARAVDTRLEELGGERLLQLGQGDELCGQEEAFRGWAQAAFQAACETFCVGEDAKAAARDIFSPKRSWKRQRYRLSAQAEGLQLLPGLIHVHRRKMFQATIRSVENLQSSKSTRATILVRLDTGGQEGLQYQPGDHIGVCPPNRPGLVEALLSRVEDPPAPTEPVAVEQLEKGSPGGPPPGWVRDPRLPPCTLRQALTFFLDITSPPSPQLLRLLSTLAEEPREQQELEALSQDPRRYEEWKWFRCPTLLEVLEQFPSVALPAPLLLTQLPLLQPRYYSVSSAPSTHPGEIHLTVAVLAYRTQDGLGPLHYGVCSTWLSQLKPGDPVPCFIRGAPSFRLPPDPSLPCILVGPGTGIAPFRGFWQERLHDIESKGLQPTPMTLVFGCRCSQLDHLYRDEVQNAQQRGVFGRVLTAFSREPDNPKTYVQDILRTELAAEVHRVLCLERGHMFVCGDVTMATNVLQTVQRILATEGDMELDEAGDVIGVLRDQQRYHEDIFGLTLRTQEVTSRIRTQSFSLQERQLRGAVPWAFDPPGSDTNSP

Nitric oxide synthase 1 = Nitric oxide synthase 1 (Homo sapiens, UniProt P29475); test: Inhibition of human neuronal nitric oxide synthase
Nitric oxide synthase 1, sequence (P29475 whole entry): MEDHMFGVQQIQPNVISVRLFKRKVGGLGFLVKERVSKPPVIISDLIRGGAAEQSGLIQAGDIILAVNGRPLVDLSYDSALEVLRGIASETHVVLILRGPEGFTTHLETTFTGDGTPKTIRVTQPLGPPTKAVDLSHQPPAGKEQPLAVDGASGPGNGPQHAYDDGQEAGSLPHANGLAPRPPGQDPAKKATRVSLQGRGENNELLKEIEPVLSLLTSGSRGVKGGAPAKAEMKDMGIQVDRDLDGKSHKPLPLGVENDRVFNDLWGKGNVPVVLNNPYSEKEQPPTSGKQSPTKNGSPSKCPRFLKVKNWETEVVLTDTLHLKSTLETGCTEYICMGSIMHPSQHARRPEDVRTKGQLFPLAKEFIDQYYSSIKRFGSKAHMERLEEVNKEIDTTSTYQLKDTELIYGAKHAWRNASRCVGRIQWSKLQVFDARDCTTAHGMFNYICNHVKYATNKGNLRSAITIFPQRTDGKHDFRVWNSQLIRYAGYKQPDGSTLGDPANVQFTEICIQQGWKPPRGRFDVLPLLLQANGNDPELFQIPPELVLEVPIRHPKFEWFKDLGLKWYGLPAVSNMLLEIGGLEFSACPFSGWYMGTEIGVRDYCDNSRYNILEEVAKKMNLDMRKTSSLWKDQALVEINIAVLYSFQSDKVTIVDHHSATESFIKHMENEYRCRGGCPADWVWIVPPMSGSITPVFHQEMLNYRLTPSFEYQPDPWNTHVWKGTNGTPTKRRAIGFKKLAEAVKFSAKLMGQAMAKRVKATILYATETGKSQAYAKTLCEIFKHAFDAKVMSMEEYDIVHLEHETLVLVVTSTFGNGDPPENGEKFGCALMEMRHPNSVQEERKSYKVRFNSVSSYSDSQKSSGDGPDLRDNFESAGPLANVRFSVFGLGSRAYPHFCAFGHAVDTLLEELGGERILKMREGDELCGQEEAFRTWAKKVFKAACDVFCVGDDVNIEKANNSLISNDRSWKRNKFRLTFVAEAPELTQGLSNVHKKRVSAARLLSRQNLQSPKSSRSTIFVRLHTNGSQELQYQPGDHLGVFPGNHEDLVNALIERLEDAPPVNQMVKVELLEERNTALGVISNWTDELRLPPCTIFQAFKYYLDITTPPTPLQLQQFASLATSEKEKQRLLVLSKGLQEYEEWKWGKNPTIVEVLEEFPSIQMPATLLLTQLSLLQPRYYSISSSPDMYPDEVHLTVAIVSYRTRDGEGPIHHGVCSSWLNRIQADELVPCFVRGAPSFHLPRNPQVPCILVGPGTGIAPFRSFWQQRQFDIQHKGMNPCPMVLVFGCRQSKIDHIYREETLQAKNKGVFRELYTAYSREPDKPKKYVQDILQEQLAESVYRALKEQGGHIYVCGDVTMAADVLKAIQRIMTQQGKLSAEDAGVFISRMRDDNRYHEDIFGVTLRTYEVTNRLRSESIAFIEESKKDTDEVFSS

[1] = target: Nitric oxide synthase, inducible (Homo sapiens, UniProt P35228); test: Inhibition of human inducible nitric oxide synthase
Nitric oxide synthase, inducible, sequence (P35228 whole entry): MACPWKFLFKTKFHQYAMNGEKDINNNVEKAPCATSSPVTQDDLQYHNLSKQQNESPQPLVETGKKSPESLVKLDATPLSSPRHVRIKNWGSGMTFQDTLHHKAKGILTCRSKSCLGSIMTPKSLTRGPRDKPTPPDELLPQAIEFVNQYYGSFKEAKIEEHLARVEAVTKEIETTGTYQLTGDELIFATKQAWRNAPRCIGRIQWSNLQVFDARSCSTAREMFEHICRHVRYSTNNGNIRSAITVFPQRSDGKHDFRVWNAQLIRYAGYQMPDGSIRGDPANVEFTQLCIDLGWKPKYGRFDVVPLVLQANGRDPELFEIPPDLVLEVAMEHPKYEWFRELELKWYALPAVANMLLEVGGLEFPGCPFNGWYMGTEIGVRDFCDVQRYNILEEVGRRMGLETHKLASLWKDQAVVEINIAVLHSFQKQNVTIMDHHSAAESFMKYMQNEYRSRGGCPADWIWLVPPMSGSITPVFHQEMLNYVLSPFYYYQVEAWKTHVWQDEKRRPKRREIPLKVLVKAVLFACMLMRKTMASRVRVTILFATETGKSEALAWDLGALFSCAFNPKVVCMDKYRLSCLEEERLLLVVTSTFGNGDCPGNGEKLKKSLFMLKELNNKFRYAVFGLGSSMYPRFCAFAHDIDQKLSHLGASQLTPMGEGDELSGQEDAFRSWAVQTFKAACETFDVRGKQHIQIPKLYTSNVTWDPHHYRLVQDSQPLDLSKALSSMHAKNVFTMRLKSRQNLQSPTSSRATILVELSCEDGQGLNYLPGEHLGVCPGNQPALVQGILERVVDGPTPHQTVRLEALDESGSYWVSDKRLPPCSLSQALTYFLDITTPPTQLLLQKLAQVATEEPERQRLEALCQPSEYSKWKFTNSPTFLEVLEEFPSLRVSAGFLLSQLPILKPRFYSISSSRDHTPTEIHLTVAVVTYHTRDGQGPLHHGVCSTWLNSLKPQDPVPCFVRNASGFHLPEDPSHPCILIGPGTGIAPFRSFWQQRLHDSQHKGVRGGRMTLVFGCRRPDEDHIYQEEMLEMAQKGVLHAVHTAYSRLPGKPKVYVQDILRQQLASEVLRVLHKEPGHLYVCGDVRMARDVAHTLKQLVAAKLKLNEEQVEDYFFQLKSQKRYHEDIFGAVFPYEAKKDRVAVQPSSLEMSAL

[2] = pKa value by photometric titration; format: physicochemical

SMILES | IC50 (Nitric oxide synthase 3) [nM] | IC50 (Nitric oxide synthase 1) [nM] | IC50 [1] [nM] | pKa [2]
CNCc1ccc2c(c1)N=C(N)[C@]1(F)CCC[C@H]21 | 66000 | 660 | 1400 | 
NC1=Nc2ccccc2[C@H]2CCC[C@@]12F | 2700 | 100 | 2100 | 7.9
NC1=Nc2cc(CCCNCc3cccc(Cl)c3)ccc2[C@H]2CCC[C@@]12F | 38000 | 310 | 2200 | 8
NC1=Nc2ccc(Cl)cc2[C@H]2CCC[C@@]12F | 14000 | 290 | 8100 | 7.6
CNCCc1ccc2c(c1)N=C(N)[C@]1(F)CCC[C@H]21 | 79000 | 390 | 1900 | 7.9
NC1=Nc2cc(CCCNCc3cccc(Cl)c3)ccc2[C@H]2CCC[C@@H]12 |  |  |  | 9.9
NC1=Nc2c(F)cccc2[C@H]2CCC[C@@]12F | 22000 | 590 | 25000 | 6.6

Results, then the molecule that gave them:

IC50 (Nitric oxide synthase 3) [nM] | IC50 (Nitric oxide synthase 1) [nM] | IC50 [1] [nM] | pKa [2] | SMILES
 |  |  | 9.7 | NC1=Nc2ccccc2[C@H]2CCC[C@@H]12
14000 | 290 | 8100 | 8.2 | NC1=Nc2c(F)cc(Cl)cc2[C@H]2CCC[C@@H]12
 |  |  | 8.5 | NC1=Nc2c(F)cccc2[C@H]2CCC[C@@H]12
 |  |  | 8 | NC1=Nc2c(ccc(F)c2F)[C@H]2CCC[C@@H]12
 |  |  | 9.4 | NC1=Nc2ccc(Cl)cc2[C@H]2CCC[C@@H]12
